Measurements reported in US20260028365A1 (BIOGEN MA INC., priority 2022, published 2026).
pIC50: −log10 of the molar value. Counter-ions that a name gives are not always drawn.

Columns and labels:
JH2 domain of human Tyk2 = JH2 domain of human Tyk2 (Homo sapiens (Human), UniProt P29597); experiment: JH2 Biochemical Assay (TR-FRET probe displacement); assay type: binding; details: TR-FRET probe displacement, JH2 domain of human Tyk2
Tyk2 = Tyk2 (Homo sapiens (Human), UniProt P29597); experiment: pSTAT4 Cell Assay (MSD, NK92 cells); assay type: cell-based; details: MSD
Tyk2, sequence (P29597 whole entry): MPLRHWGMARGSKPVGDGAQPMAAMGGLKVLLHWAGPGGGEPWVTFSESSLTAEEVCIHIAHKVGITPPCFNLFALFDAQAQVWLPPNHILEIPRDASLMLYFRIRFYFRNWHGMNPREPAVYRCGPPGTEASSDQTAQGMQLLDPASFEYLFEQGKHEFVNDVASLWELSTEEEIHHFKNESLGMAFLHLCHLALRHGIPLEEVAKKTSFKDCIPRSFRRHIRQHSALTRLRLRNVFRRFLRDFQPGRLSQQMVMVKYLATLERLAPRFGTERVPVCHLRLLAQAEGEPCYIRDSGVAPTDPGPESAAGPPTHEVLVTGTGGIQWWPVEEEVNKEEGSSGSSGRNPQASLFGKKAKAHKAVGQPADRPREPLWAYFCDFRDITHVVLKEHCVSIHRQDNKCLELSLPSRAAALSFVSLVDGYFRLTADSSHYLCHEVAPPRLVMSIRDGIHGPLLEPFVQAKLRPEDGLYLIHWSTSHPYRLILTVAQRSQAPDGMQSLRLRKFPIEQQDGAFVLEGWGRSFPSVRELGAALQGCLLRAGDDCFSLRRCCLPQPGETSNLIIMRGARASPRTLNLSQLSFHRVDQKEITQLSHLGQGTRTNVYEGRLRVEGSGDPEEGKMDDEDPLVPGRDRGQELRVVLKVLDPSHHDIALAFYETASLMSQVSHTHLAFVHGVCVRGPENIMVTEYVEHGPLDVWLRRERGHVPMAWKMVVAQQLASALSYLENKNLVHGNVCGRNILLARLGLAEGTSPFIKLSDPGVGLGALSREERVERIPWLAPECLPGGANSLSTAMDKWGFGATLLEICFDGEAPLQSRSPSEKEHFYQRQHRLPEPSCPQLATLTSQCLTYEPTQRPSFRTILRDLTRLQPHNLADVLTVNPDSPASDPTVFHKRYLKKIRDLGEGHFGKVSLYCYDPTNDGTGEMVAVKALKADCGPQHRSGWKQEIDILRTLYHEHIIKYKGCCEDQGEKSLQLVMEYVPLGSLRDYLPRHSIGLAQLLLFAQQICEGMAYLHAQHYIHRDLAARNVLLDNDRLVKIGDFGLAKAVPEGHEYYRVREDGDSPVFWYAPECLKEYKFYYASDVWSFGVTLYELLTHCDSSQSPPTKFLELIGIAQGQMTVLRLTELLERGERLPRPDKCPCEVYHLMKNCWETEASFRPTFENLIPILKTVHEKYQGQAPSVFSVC

JH2 domain of human Tyk2, sequence (P29597 575-876): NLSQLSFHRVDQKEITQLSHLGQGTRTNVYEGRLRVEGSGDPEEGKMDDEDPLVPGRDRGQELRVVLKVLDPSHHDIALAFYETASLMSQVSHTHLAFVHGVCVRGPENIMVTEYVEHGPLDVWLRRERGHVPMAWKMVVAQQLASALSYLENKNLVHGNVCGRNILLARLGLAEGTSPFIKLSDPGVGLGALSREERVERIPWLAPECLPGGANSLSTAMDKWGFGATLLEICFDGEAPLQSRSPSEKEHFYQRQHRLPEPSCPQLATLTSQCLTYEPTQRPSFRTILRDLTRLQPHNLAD

Row | SMILES | pIC50 (JH2 domain of human Tyk2) | pIC50 (Tyk2)
1 | CCOc1cnc(NC(C)=O)cc1Nc1cc(F)nc(C(C)(F)F)n1 [Example 94, N-(4-((2-(1,1-difluoroethyl)-6-fluoropyrimidin-4-yl)amino)-5-ethoxypyridin-2-yl)acetamide trifluoroacetate] | ≥ 8.00 | 7.00 to 8.00
2 | CCOc1cnc(NC(C)=O)cc1Nc1cc(C)cc(C23COC(C2)C3)n1 [Example 95, N-(4-((6-(2-oxabicyclo[2.1.1]hexan-4-yl)-4-methylpyridin-2-yl)amino)-5-ethoxypyridin-2-yl)acetamide] | 7.00 to 8.00 | 6.00 to 7.00
3 | CCOc1cnc(NC(C)=O)cc1Nc1cc(-c2cccnc2)nc(C(C)(F)F)n1 [Example 96, N-(4-((2-(1,1-difluoroethyl)-6-(pyridin-3-yl)pyrimidin-4-yl)amino)-5-ethoxypyridin-2-yl)acetamide] | ≥ 8.00 | 7.00 to 8.00
4 | CCn1cc(-c2cc(Nc3cc(NC(C)=O)ncc3OC)nc(C(C)(F)F)n2)cn1 [Example 97, N-(4-((2-(1,1-difluoroethyl)-6-(1-ethyl-1H-pyrazol-4-yl)pyrimidin-4-yl)amino)-5-methoxypyridin-2-yl)acetamide] | 7.00 to 8.00 | 7.00 to 8.00
5 | CC(=O)Nc1cc(Nc2cc(C)nc(C(C)(F)F)n2)c(Oc2cncc(C)n2)cn1 [Example 98, N-(4-((2-(1,1-difluoroethyl)-6-methylpyrimidin-4-yl)amino)-5-((6-methylpyrazin-2-yl)oxy)pyridin-2-yl)acetamide] | ≤ 6.00 | ≤ 6.00
6 | CC(=O)Nc1cc(Nc2cc(C)nc(C(C)(F)F)n2)c(OCC2(F)CC2)cn1 [Example 99, N-(4-((2-(1,1-difluoroethyl)-6-methylpyrimidin-4-yl)amino)-5-((1-fluorocyclopropyl)methoxy)pyridin-2-yl)acetamide] | ≥ 8.00 | ≥ 8.00
7 | CC(=O)Nc1cc(Nc2cc(C)nc(C(C)(F)F)n2)c(OCc2ccc(F)cn2)cn1 [Example 125, N-(4-((2-(1,1-difluoroethyl)-6-methylpyrimidin-4-yl)amino)-5-((5-fluoropyridin-2-yl)methoxy)pyridin-2-yl)acetamide] | ≥ 8.00 | 7.00 to 8.00
8 | CC(=O)Nc1cc(Nc2cc(C)nc(C(C)(F)F)n2)c(OCc2cnn(C)c2C)cn1 [Example 138, N-(4-((2-(1,1-difluoroethyl)-6-methylpyrimidin-4-yl)amino)-5-((1,5-dimethyl-1H-pyrazol-4-yl)methoxy)pyridin-2-yl)acetamide] | 6.00 to 7.00 | ≤ 6.00
9 | CC(=O)Nc1cc(Nc2cccc(C(C)(F)F)n2)c(OCCO)cn1 [Example 140, N-(4-((6-(1,1-difluoroethyl)pyridin-2-yl)amino)-5-(2-hydroxyethoxy)pyridin-2-yl)acetamide] | ≥ 8.00 | ≥ 8.00
10 | CC(=O)Nc1cc(Nc2cc(C)nc(C34CC(CO3)C4)n2)c(-c2ccc(COC(F)F)cn2)cn1 [Example 142, N-(4′-((2-(2-oxabicyclo[2.1.1]hexan-1-yl)-6-methylpyrimidin-4-yl)amino)-5-((difluoromethoxy)methyl)-[2,3′-bipyridin]-6′-yl)acetamide] | ≥ 8.00 | 7.00 to 8.00
11 | CC(=O)Nc1cc(Nc2ccnc(C(C)(F)F)n2)c(-c2ccc3c(n2)OCC(C)(C)O3)cn1 [Example 144, N-(4-((2-(1,1-difluoroethyl)pyrimidin-4-yl)amino)-5-(2,2-dimethyl-2,3-dihydro-[1,4]dioxino[2,3-b]pyridin-6-yl)pyridin-2-yl)acetamide trifluoroacetate] | ≥ 8.00 | ≥ 8.00
12 | CC(=O)Nc1cc(Nc2cccc(C(C)(F)F)n2)c(-c2ccn(C)n2)cn1 [Example 147, N-(4-((6-(1,1-difluoroethyl)pyridin-2-yl)amino)-5-(1-methyl-1H-pyrazol-3-yl)pyridin-2-yl)acetamide] | ≥ 8.00 | ≥ 8.00
13 | CC(=O)Nc1cc(Nc2cc(C)nc(C(C)(F)F)n2)c(-c2cccc(OC(F)F)n2)cn1 [Example 150, N-(4′-((2-(1,1-difluoroethyl)-6-methylpyrimidin-4-yl)amino)-6-(difluoromethoxy)-[2,3′-bipyridin]-6′-yl)acetamide] | ≥ 8.00 | ≥ 8.00
14 | CCC(F)(F)c1cnc(NC(C)=O)cc1Nc1cc(C)nc(C(C)(F)F)n1 [Example 154, N-(4-((2-(1,1-difluoroethyl)-6-methylpyrimidin-4-yl)amino)-5-(1,1-difluoropropyl)pyridin-2-yl)acetamide] | 7.00 to 8.00 | ≤ 6.00
15 | COc1cc(-c2cnc(NC(C)=O)cc2Nc2cc(C)nc(C(C)(F)F)n2)nc(C)n1 [Example 155, N-(4-((2-(1,1-difluoroethyl)-6-methylpyrimidin-4-yl)amino)-5-(6-methoxy-2-methylpyrimidin-4-yl)pyridin-2-yl)acetamide] | ≥ 8.00 | 7.00 to 8.00
16 | COc1nc(C)cc(-c2cnc(NC(C)=O)cc2Nc2cc(C)nc(C(C)(F)F)n2)n1 [Example 156, N-(4-((2-(1,1-difluoroethyl)-6-methylpyrimidin-4-yl)amino)-5-(2-methoxy-6-methylpyrimidin-4-yl)pyridin-2-yl)acetamide] | ≥ 8.00 | ≥ 8.00

Row | SMILES | pIC50 (JH2 domain of human Tyk2) | pIC50 (Tyk2)
17 | CC(=O)Nc1cc(Nc2cc(C)nc(C(C)(F)F)n2)c(-c2ncn(C)n2)cn1 [Example 157, N-(4-((2-(1,1-difluoroethyl)-6-methylpyrimidin-4-yl)amino)-5-(1-methyl-1H-1,2,4-triazol-3-yl)pyridin-2-yl)acetamide] | ≥ 8.00 | 6.00 to 7.00
18 | CC(=O)Nc1cc(Nc2cccc(C(C)(F)F)n2)c(-c2ccc(=O)n(C)n2)cn1 [Example 158, N-(4-((6-(1,1-difluoroethyl)pyridin-2-yl)amino)-5-(1-methyl-6-oxo-1,6-dihydropyridazin-3-yl)pyridin-2-yl)acetamide] | ≥ 8.00 | ≥ 8.00
19 | CC(=O)Nc1cc(Nc2cccc(C(C)(F)F)n2)c(-c2cn(C)c(=O)cn2)cn1 [Example 159, N-(4-((6-(1,1-difluoroethyl)pyridin-2-yl)amino)-5-(4-methyl-5-oxo-4,5-dihydropyrazin-2-yl)pyridin-2-yl)acetamide] | ≥ 8.00 | 7.00 to 8.00
20 | CC(=O)Nc1cc(Nc2cccc(C(C)(F)F)n2)c(-c2ccn(C)c(=O)n2)cn1 [Example 160, N-(4-((6-(1,1-difluoroethyl)pyridin-2-yl)amino)-5-(1-methyl-2-oxo-1,2-dihydropyrimidin-4-yl)pyridin-2-yl)acetamide] | ≥ 8.00 | ≥ 8.00
21 | CC(=O)Nc1cc(Nc2cccc(C(C)(F)F)n2)c(-c2cc(=O)n(C)cn2)cn1 [Example 161, N-(4-((6-(1,1-difluoroethyl)pyridin-2-yl)amino)-5-(1-methyl-6-oxo-1,6-dihydropyrimidin-4-yl)pyridin-2-yl)acetamide] | ≥ 8.00 | 7.00 to 8.00
22 | COc1cc(-c2cnc(NC(C)=O)cc2Nc2cccc(C(C)(F)F)n2)ncn1 [Example 162, N-(4-((6-(1,1-difluoroethyl)pyridin-2-yl)amino)-5-(6-methoxypyrimidin-4-yl)pyridin-2-yl)acetamide] | ≥ 8.00 | ≥ 8.00
23 | COc1cc(-c2cnc(NC(C)=O)cc2Nc2ccnc(C(C)(F)F)n2)nc(C)n1 [Example 163, N-(4-((2-(1,1-difluoroethyl)pyrimidin-4-yl)amino)-5-(6-methoxy-2-methylpyrimidin-4-yl)pyridin-2-yl)acetamide] | ≥ 8.00 | 7.00 to 8.00
24 | COc1nc(C)cc(-c2cnc(NC(C)=O)cc2Nc2ccnc(C(C)(F)F)n2)n1 [Example 164, N-(4-((2-(1,1-difluoroethyl)pyrimidin-4-yl)amino)-5-(2-methoxy-6-methylpyrimidin-4-yl)pyridin-2-yl)acetamide] | ≥ 8.00 | 7.00 to 8.00
25 | CC(=O)Nc1cc(Nc2ccnc(C(C)(F)F)n2)c(-c2ncn(C)n2)cn1 [Example 165, N-(4-((2-(1,1-difluoroethyl)pyrimidin-4-yl)amino)-5-(1-methyl-1H-1,2,4-triazol-3-yl)pyridin-2-yl)acetamide] | 7.00 to 8.00 | 6.00 to 7.00
26 | CCc1cc(Nc2cc(NC(C)=O)ncc2-c2ncn(C)n2)nc(C(C)(F)F)n1 [Example 166, N-(4-((2-(1,1-difluoroethyl)-6-ethylpyrimidin-4-yl)amino)-5-(1-methyl-1H-1,2,4-triazol-3-yl)pyridin-2-yl)acetamide] | ≥ 8.00 | 7.00 to 8.00
27 | CCc1cc(Nc2cc(NC(C)=O)ncc2-c2nnc(C)s2)nc(C(C)(F)F)n1 [Example 167, N-(4-((2-(1,1-difluoroethyl)-6-ethylpyrimidin-4-yl)amino)-5-(5-methyl-1,3,4-thiadiazol-2-yl)pyridin-2-yl)acetamide] | ≥ 8.00 | ≥ 8.00
28 | CCc1cc(Nc2cc(NC(C)=O)ncc2-c2nnc(C)o2)nc(C(C)(F)F)n1 [Example 168, N-(4-((2-(1,1-difluoroethyl)-6-ethylpyrimidin-4-yl)amino)-5-(5-methyl-1,3,4-oxadiazol-2-yl)pyridin-2-yl)acetamide] | ≥ 8.00 | 7.00 to 8.00
29 | CC(=O)Nc1cc(Nc2cccc(OC(F)F)n2)c(-c2ccncn2)cn1 [Example 171, N-(4-((6-(difluoromethoxy)pyridin-2-yl)amino)-5-(pyrimidin-4-yl)pyridin-2-yl)acetamide] | ≥ 8.00 | 6.00 to 7.00
30 | CC(=O)Nc1cc(Nc2cccc(C(C)(F)F)n2)c(-c2ccnc(C)n2)cn1 [Example 172, N-(4-((6-(1,1-difluoroethyl)pyridin-2-yl)amino)-5-(2-methylpyrimidin-4-yl)pyridin-2-yl)acetamide] | ≥ 8.00 | ≥ 8.00
31 | CC(=O)Nc1cc(Nc2ccnc(C(C)(F)F)n2)c(-c2ccnc(C)n2)cn1 [Example 173, N-(4-((2-(1,1-difluoroethyl)pyrimidin-4-yl)amino)-5-(2-methylpyrimidin-4-yl)pyridin-2-yl)acetamide] | ≥ 8.00 | ≥ 8.00
32 | CC(=O)Nc1cc(Nc2cc(C)nc(C(C)(F)F)n2)c(-c2ccnc(C)n2)cn1 [Example 174, N-(4-((2-(1,1-difluoroethyl)-6-methylpyrimidin-4-yl)amino)-5-(2-methylpyrimidin-4-yl)pyridin-2-yl)acetamide] | ≥ 8.00 | ≥ 8.00
